In PubChem BioAssay (NCI):
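Growth conditions: 96-well plates. Treatment: test compound, 48 hours, 5 concentrations. Analysis: linear interpolation between bracketing concentrations; unreached endpoints set to highest concentration. Definition used: TGI = concentration required for complete inhibition of growth.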

How the values were obtained:
Test in all cases: NCI-60 cell line screen, 48 h
[1] = system: DMS 114 small cell lung
[2] = system: UO-31 renal
[3] = system: NCI-H23 lung
[4] = system: COLO 205 colon
[5] = system: SN12C renal
[6] = system: EKVX NSCLC
[7] = system: XF 498 CNS
[8] = system: SW-620 colon
[9] = system: SNB-19 CNS
[10] = system: OVCAR-5 ovarian
[11] = system: A549 NSCLC
[12] = system: 786-0 renal
[13] = system: NCI-H226 lung
[14] = system: ACHN renal
[15] = system: SK-MEL-5 melanoma
[16] = system: TK-10 renal
[17] = system: MOLT-4 leukemia
[18] = system: HCT-116 colon
[19] = system: CCRF-CEM leukemia
[20] = system: SF-295 CNS
[21] = system: M14 melanoma
[22] = system: SNB-75 CNS
[23] = system: CAKI-1 renal
[24] = system: HT29 colon
[25] = system: SF-539 CNS
[26] = system: UACC-62 melanoma
[27] = system: DMS 273 small cell lung
[28] = system: U251 CNS
[29] = system: SR leukemia
[30] = system: K-562 leukemia
[31] = system: OVCAR-8 ovarian
[32] = system: NCI-H522 lung
[33] = system: LOX IMVI melanoma
[34] = system: SF-268 CNS
[35] = system: SK-OV-3 ovarian
[36] = system: IGROV1 ovarian
[37] = system: M19-MEL melanoma
[38] = system: NCI-H460 lung
[39] = system: HOP-62 NSCLC
[40] = system: HOP-92 NSCLC
[41] = system: OVCAR-4 ovarian
[42] = system: SNB-78 CNS
[43] = system: DLD-1 colon
[44] = system: OVCAR-3 ovarian
[45] = system: KM12 colon
[46] = system: SK-MEL-2 melanoma
[47] = system: RXF 393 renal
[48] = system: MALME-3M melanoma
[49] = system: HCC-2998 colon
[50] = system: UACC-257 melanoma
[51] = system: HCT-15 colon
[52] = system: SK-MEL-28 melanoma
[53] = system: HL-60(TB) leukemia
[54] = system: LXFL 529 NSCLC
[55] = system: A498 renal

Measured: TGI

O=c1c2cccnc2ncn1CCCN1CCCC1
> 100 µM: [1] | [2] | [3] | [4] | [5] | [6] | [7] | [8] | [9] | [10] | [11] | [12] | [13] | [14] | [15] | [16] | [17] | [18] | [19] | [20] | [21] | [22] | [23] | [24] | [25] | [26] | [27] | [28] | [29] | [30] | [31] | [32] | [33] | [34] | [35] | [36] | [37] | [38] | [39] | [40] | [41] | [42] | [43] | [44] | [45] | [46] | [47]

Clc1ccc(OCc2nnc3n2N=C(c2ccccc2)CS3)c(Cl)c1
86.6 µM: [20]
> 100 µM: [1] | [3] | [48] | [7] | [8] | [49] | [9] | [10] | [11] | [12] | [50] | [13] | [14] | [15] | [16] | [17] | [18] | [19] | [23] | [24] | [51] | [26] | [27] | [28] | [29] | [30] | [31] | [32] | [34] | [35] | [36] | [52] | [37] | [38] | [53] | [54] | [40] | [41] | [42] | [43] | [45] | [46] | [47]
8.46 µM: [2]
76.8 µM: [55]
19.6 µM: [22]
91.1 µM: [25]
5.87 µM: [33]
